Results as given in the supplement of paper PMC10307832.

Key:
Assay in all cases: relative viability (nuclei count vs DMSO), 5 days (fraction); higher = more cells survive
Vorinostat + Navitoclax = compound: O=C(CCCCCCC(=O)Nc1ccccc1)NO [Vorinostat] + CC1(C)CCC(c2ccc(Cl)cc2)=C(CN2CCN(c3ccc(C(=O)NS(=O)(=O)c4ccc(N[C@H](CCN5CCOCC5)CSc5ccccc5)c(S(=O)(=O)C(F)(F)F)c4)cc3)CC2)C1 [Navitoclax] (partner 0.5 µM)
In short: (§1)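 Five library-drug doses in √10 steps were combined with a fixed anchor-drug dose, or a single drug was given alone, by pin tool to lung cancer cell lines in 1536-well plates the day after seeding. Nuclei were stained and counted after 5 days. Relative viability is the nuclei count in treated wells over that in vehicle wells, taken as the median of duplicate plates.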

Vorinostat + Dasatinib = compound: O=C(CCCCCCC(=O)Nc1ccccc1)NO [Vorinostat] + Cc1nc(Nc2ncc(C(=O)Nc3c(C)cccc3Cl)s2)cc(N2CCN(CCO)CC2)n1 [Dasatinib] (partner 0.075 µM)
In short: as §1

Vorinostat + Phenformin = compound: O=C(CCCCCCC(=O)Nc1ccccc1)NO [Vorinostat] + N=C(N)NC(=N)NCCc1ccccc1 [Phenformin] (partner 250 µM)
In short: as §1

Vorinostat + Olaparib = compound: O=C(CCCCCCC(=O)Nc1ccccc1)NO [Vorinostat] + O=C(c1cc(Cc2n[nH]c(=O)c3ccccc23)ccc1F)N1CCN(C(=O)C2CC2)CC1 [Olaparib] (partner 8 µM)
In short: as §1

Vorinostat + Crizotinib = compound: O=C(CCCCCCC(=O)Nc1ccccc1)NO [Vorinostat] + C[C@@H](Oc1cc(-c2cnn(C3CCNCC3)c2)cnc1N)c1c(Cl)ccc(F)c1Cl [Crizotinib] (partner 1 µM)
In short: as §1

Cell Line	relative viability (Vorinostat + Navitoclax; first compound 0.253 µM)	relative viability (Vorinostat + Navitoclax; first compound 0.8 µM)	relative viability (Vorinostat + Navitoclax; first compound 2.53 µM)	relative viability (Vorinostat + Navitoclax; first compound 8 µM)	relative viability (Vorinostat + Dasatinib; first compound 0.253 µM)	relative viability (Vorinostat + Dasatinib; first compound 0.8 µM)	relative viability (Vorinostat + Dasatinib; first compound 2.53 µM)	relative viability (Vorinostat + Dasatinib; first compound 8 µM)	relative viability (Vorinostat + Phenformin; first compound 0.253 µM)	relative viability (Vorinostat + Phenformin; first compound 0.8 µM)	relative viability (Vorinostat + Phenformin; first compound 2.53 µM)	relative viability (Vorinostat + Phenformin; first compound 8 µM)	relative viability (Vorinostat + Olaparib; first compound 0.253 µM)	relative viability (Vorinostat + Olaparib; first compound 0.8 µM)	relative viability (Vorinostat + Olaparib; first compound 2.53 µM)	relative viability (Vorinostat + Olaparib; first compound 8 µM)	relative viability (Vorinostat + Crizotinib; first compound 0.253 µM)	relative viability (Vorinostat + Crizotinib; first compound 0.8 µM)	relative viability (Vorinostat + Crizotinib; first compound 2.53 µM)	relative viability (Vorinostat + Crizotinib; first compound 8 µM)
NCI-H1395	1.14	1.26	0.693	0.387	0.395	0.434	0.365	0.344	0.475	0.501	0.401	0.341	0.513	0.465	0.436	0.318				
IA-LM	0.791	0.597	0.235	0.0188									0.911	0.701	0.405	0.0749	0.751	0.743	0.152	0.0423
LCLC-103H					0.504	0.533	0.339	0.134	0.322	0.332	0.267	0.151	0.844	0.737	0.413	0.247	1.12	1.13	0.737	0.254
ABC-1					0.531	0.41	0.221	0.131	0.254	0.307	0.183	0.156	1.02	1.3	0.78	0.196	1.11	0.383	0.131	0.0777
NCI-H661					1.11	0.791	0.247	0.223	0.38	0.3	0.213	0.268	0.767	0.569	0.392	0.323	1.01	1.03	0.483	0.327
NCI-H1563					0.411	0.458	0.448	0.385	0.771	0.727	0.556	0.492					0.796	0.824	0.469	0.492
NCI-H1793	0.534	0.521	0.186	0.118	0.491	0.433	0.351	0.135	0.467	0.415	0.516	0.279	1.16	0.937	0.358	0.111				
SW 900					0.679	0.739	0.249	0.118	0.73	0.391	0.322	0.091	0.901	0.589	0.192	0.113				
NCI-H358					0.182	0.227	0.0991	0.0768	0.5	0.47	0.115	0.082	0.722	0.609	0.227	0.0636	0.526	0.393	0.133	0.134
NCI-H650					0.475	0.357	0.196	0.126	0.483	0.375	0.256	0.14	0.375	0.275	0.121	0.129	0.716	0.503	0.155	0.165
